Data on one molecule can be found in ChEMBL document CHEMBL4330132, “5-Keto-3-cyano-2,4-diaminothiophenes as selective maternal embryonic leucine zipper kinase inhibitors” (Bioorg Med Chem Lett, 2019).

Assay [1] deals with Mitogen-activated protein kinase kinase kinase 20 (Homo sapiens) (UniProt Q9NYL2). Briefly: Binding affinity to wild-type human partial length ZAK (M1 to L331 residues) expressed in bacterial expression system assessed as residual binding level at 1 uM by Kinomescan method relative to control.
The target of assay [2] is Serine/threonine-protein kinase MRCK alpha (Homo sapiens) (UniProt Q5VT25). In words: Binding affinity to wild-type human partial length MRCKA (L57 to V418 residues) expressed in bacterial expression system assessed as residual binding level at 1 uM by Kinomescan method relative to control.
Sequence of Serine/threonine-protein kinase MRCK alpha (Homo sapiens) (Q5VT25 whole entry, the tested form may be a part): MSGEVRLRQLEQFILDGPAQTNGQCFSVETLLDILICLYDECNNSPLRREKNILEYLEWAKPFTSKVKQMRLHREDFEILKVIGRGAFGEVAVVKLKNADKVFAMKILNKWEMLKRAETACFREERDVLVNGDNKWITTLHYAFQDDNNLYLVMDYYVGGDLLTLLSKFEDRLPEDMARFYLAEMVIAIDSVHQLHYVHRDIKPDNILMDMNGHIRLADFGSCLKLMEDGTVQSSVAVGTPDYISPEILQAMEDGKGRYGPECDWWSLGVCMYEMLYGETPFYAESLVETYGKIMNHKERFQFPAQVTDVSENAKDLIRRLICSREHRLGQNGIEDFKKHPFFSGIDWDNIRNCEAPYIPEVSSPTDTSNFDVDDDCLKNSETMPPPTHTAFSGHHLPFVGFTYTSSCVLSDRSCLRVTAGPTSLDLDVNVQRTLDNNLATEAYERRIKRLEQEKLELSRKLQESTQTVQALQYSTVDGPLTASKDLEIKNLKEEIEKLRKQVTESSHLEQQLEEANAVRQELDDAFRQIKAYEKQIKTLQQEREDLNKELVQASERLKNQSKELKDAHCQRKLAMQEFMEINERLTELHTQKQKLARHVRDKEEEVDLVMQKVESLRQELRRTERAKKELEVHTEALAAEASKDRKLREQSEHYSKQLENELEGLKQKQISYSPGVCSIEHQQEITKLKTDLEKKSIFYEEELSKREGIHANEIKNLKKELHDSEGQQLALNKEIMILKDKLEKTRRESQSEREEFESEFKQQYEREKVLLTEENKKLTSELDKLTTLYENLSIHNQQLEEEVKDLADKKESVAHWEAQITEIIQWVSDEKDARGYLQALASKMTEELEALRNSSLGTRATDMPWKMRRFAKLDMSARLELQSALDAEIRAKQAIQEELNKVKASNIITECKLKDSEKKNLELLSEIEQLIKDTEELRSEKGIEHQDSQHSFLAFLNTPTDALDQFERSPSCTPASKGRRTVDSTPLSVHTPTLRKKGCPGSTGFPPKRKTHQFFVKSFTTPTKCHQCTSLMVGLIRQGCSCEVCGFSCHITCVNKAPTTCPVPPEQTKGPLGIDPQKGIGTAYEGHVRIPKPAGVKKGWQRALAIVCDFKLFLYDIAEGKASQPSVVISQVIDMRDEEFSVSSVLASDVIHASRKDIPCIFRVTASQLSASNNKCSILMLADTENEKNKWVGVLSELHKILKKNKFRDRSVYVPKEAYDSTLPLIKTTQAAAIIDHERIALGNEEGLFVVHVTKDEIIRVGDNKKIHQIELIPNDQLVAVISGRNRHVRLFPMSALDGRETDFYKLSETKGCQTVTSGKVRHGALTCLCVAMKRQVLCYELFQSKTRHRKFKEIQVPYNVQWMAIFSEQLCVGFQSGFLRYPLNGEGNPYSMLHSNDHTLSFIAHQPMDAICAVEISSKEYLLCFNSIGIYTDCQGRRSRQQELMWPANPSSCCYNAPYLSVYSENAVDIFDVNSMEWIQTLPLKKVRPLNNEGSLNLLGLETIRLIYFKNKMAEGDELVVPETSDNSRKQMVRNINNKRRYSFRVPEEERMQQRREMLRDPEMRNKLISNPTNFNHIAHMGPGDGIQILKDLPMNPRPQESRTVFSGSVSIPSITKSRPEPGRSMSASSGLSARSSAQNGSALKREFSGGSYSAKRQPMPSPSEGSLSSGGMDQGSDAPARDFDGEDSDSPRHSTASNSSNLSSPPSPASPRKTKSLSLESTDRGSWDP
Assay [3] deals with Mitogen-activated protein kinase kinase kinase 15 (Homo sapiens) (UniProt Q6ZN16). In words: Binding affinity to wild-type human partial length MAP3K15 (T625 to L932 residues) expressed in mammalian expression system assessed as residual binding level at 1 uM by Kinomescan method relative to control.
For assay [4], the target named is Calcium/calmodulin-dependent protein kinase type 1D (Homo sapiens) (UniProt Q8IU85). Briefly: Binding affinity to wild-type human partial length CAMK1D (M1 to K299 residues) expressed in bacterial expression system assessed as residual binding level at 1 uM by Kinomescan method relative to control.
Sequence of Calcium/calmodulin-dependent protein kinase type 1D (Homo sapiens) (Q8IU85 whole entry, looked up, the tested form may be a part): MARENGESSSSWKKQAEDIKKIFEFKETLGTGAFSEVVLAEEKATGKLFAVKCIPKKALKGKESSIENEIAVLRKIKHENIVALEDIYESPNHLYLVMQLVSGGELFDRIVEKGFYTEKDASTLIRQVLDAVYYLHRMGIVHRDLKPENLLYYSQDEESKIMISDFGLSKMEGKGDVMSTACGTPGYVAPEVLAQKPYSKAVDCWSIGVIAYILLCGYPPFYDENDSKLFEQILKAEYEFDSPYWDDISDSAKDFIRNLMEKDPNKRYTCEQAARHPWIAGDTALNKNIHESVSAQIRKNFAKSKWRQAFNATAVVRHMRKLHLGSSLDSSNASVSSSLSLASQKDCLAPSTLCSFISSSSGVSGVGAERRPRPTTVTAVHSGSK
Assay [5] concerns the target Ribosomal protein S6 kinase alpha-5 (Homo sapiens) (UniProt O75582). Briefly: Binding affinity to wild-type human partial length N-terminal RPS6KA5 kinase domain 1 expressed in bacterial expression system assessed as residual binding level at 1 uM by Kinomescan method relative to control.
Assay [6] addresses Serine/threonine-protein kinase 17B (Homo sapiens) (UniProt O94768). In words: Binding affinity to wild-type human full length DRAK2 (M1 to C372 residues) expressed in bacterial expression system assessed as residual binding level at 1 uM by Kinomescan method relative to control.
For assay [7], the system named is Phosphatidylinositol 4,5-bisphosphate 3-kinase catalytic subunit alpha isoform (Homo sapiens), P42336 [C420R]. Briefly: Binding affinity to human partial length PIK3CA C420R mutant (R108 to N1068 residues) expressed in mammalian expression system assessed as residual binding level at 1 uM by Kinomescan method relative to control.
Assay [8] relates to Epidermal growth factor receptor (Homo sapiens), P00533 [L861Q]. In words: Binding affinity to human partial length EGFR L861Q mutant (R669 to V1011 residues) expressed in bacterial expression system assessed as residual binding level at 1 uM by Kinomescan method relative to control.
Assay [9] concerns the target Cytoplasmic tyrosine-protein kinase BMX (Homo sapiens) (UniProt P51813). In words: Binding affinity to wild-type human full length BMX (M1 to H675 residues) expressed in bacterial expression system assessed as residual binding level at 1 uM by Kinomescan method relative to control.
Assay [10] concerns the target Serine/threonine-protein kinase PLK2 (Homo sapiens) (UniProt Q9NYY3). In words: Binding affinity to wild-type human partial length PLK2 (H58 to F354 residues) expressed in mammalian expression system assessed as residual binding level at 1 uM by Kinomescan method relative to control.
For assay [11], the target named is Serine/threonine-protein kinase TAO1 (Homo sapiens) (UniProt Q7L7X3). In words: Binding affinity to wild-type human partial length TAOK1 (M1 to A320 residues) expressed in mammalian expression system assessed as residual binding level at 1 uM by Kinomescan method relative to control.
The target of assay [12] is cAMP-dependent protein kinase catalytic subunit alpha (Homo sapiens) (UniProt P17612). Briefly: Binding affinity to wild-type human partial length PKAC-alpha (G10 to F351 residues) expressed in bacterial expression system assessed as residual binding level at 1 uM by Kinomescan method relative to control.
Assay [13] addresses Serine/threonine-protein kinase Chk2 (Homo sapiens) (UniProt O96017). Briefly: Binding affinity to wild-type human partial length CHEK2 (S253 to E574 residues) expressed in bacterial expression system assessed as residual binding level at 1 uM by Kinomescan method relative to control.
Assay [14] deals with Transient receptor potential cation channel subfamily M member 6 (Homo sapiens) (UniProt Q9BX84). Briefly: Binding affinity to wild-type human partial length TRPM6 (Q1723 to I1998 residues) expressed in mammalian expression system assessed as residual binding level at 1 uM by Kinomescan method relative to control.
Assay [15] addresses Glycogen synthase kinase-3 alpha (Homo sapiens) (UniProt P49840). In words: Binding affinity to wild-type human full length GSK3A (M1 to S483 residues) expressed in bacterial expression system assessed as residual binding level at 1 uM by Kinomescan method relative to control.
The target of assay [16] is Tyrosine-protein kinase Mer (Homo sapiens) (UniProt Q12866). In words: Binding affinity to wild-type human partial length MERTK (R557 to L884 residues) expressed in bacterial expression system assessed as residual binding level at 1 uM by Kinomescan method relative to control.
Sequence of Tyrosine-protein kinase Mer (Homo sapiens) (Q12866 whole entry, the tested form may be a part): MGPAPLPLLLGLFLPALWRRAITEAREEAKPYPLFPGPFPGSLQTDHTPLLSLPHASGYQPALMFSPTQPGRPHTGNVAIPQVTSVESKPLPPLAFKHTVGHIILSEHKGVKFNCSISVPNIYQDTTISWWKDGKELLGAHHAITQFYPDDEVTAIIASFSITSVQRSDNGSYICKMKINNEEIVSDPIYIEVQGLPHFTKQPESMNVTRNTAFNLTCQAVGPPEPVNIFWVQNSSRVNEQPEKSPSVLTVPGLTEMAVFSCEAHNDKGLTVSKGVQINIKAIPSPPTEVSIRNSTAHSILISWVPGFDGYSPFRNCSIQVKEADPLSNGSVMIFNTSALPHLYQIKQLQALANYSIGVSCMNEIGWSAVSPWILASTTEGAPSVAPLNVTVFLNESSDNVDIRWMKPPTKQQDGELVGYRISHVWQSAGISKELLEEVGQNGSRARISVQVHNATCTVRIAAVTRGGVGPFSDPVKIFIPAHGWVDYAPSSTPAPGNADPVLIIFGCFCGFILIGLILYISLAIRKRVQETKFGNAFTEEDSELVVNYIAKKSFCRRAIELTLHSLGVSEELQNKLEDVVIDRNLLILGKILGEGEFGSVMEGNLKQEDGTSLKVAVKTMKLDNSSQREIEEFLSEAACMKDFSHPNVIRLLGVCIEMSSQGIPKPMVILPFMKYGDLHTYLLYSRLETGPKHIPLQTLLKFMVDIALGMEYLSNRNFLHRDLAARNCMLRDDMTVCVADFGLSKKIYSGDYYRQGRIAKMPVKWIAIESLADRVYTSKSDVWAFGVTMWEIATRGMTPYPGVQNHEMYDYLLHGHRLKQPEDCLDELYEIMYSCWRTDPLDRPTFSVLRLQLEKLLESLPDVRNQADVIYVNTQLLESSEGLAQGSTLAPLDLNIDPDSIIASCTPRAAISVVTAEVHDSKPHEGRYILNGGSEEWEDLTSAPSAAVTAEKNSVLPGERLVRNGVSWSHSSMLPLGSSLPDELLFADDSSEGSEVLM
For assay [17], the system named is Receptor-type tyrosine-protein kinase FLT3 (Homo sapiens), P36888 [D835Y]. In words: Binding affinity to human partial length FLT3 D835Y mutant (Q580 to Y969 residues) expressed in bacterial expression system assessed as residual binding level at 1 uM by Kinomescan method relative to control.
In assay [18] the target is Serine/threonine-protein kinase MAK (Homo sapiens) (UniProt P20794). Briefly: Binding affinity to wild-type human partial length MAK (M1 to P314 residues) expressed in bacterial expression system assessed as residual binding level at 1 uM by Kinomescan method relative to control.
Sequence of Serine/threonine-protein kinase MAK (Homo sapiens) (P20794 whole entry, the tested form may be a part): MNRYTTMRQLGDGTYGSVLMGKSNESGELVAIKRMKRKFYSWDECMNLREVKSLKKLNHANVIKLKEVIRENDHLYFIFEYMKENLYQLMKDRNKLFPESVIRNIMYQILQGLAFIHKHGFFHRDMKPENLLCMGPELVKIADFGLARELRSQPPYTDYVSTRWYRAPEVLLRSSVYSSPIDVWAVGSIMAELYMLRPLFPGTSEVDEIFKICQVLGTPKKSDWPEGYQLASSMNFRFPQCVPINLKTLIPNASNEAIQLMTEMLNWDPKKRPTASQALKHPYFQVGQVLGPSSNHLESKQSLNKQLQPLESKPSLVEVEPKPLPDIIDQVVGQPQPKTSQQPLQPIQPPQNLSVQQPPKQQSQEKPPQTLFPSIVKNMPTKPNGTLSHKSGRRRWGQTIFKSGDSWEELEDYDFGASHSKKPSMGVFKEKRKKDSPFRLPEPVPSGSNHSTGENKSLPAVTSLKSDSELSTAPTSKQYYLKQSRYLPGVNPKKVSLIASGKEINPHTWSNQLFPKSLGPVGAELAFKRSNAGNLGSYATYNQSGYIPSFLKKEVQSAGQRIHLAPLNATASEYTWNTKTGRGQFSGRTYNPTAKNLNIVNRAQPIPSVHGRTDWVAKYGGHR
Assay [19] has as its target Phosphatidylinositol 3-kinase C2 domain-containing subunit gamma (Homo sapiens) (UniProt O75747). Briefly: Binding affinity to wild-type human partial length PIK3C2G (M1 to I1446 residues) expressed in mammalian expression system assessed as residual binding level at 1 uM by Kinomescan method relative to control.
The target in assay [20] is Death-associated protein kinase 1 (Homo sapiens) (UniProt P53355). Briefly: Binding affinity to wild-type human partial length DAPK1 (M1 to F296 residues) expressed in bacterial expression system assessed as residual binding level at 1 uM by Kinomescan method relative to control.
The target of assay [21] is Serine/threonine-protein kinase Nek4 (Homo sapiens) (UniProt P51957). Briefly: Binding affinity to wild-type human full length NEK4 (M1 to F841 residues) expressed in mammalian expression system assessed as residual binding level at 1 uM by Kinomescan method relative to control.
Sequence of Serine/threonine-protein kinase Nek4 (Homo sapiens) (P51957 whole entry, looked up, the tested form may be a part): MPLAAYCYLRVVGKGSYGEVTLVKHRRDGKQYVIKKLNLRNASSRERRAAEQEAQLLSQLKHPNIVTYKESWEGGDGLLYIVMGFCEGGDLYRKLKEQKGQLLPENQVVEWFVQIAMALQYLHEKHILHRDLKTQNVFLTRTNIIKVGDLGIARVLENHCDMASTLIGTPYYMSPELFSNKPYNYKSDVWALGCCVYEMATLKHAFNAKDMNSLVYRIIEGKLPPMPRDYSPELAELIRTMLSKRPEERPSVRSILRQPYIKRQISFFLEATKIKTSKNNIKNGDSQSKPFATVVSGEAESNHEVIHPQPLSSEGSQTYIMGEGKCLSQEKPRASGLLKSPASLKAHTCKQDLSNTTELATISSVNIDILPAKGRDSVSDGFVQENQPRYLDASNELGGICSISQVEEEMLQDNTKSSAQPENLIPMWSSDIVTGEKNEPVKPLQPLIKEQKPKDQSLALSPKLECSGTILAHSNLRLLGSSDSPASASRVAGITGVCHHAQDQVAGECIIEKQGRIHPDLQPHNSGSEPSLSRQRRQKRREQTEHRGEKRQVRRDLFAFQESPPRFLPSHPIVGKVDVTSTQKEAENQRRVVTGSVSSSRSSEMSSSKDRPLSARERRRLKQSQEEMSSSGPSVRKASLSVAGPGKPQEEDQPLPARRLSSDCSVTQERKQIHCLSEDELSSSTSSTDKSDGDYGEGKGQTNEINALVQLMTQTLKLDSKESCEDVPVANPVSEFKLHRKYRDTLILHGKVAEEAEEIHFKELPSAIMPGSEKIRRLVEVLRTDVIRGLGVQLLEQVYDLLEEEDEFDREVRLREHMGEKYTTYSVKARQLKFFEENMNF
For assay [22], the target named is Myosin-IIIb (Homo sapiens) (UniProt Q8WXR4). In words: Binding affinity to wild-type human partial length MYO3B (M1 to D357 residues) expressed in bacterial expression system assessed as residual binding level at 1 uM by Kinomescan method relative to control.
The test system of assay [23] is Epidermal growth factor receptor (Homo sapiens), P00533 [UNDEFINED MUTATION]. In words: Binding affinity to human partial length EGFR E746-A750del mutant expressed in bacterial expression system assessed as residual binding level at 1 uM by Kinomescan method relative to control.
In assay [24] the target is Serine/threonine-protein kinase 32B (Homo sapiens) (UniProt Q9NY57). In words: Binding affinity to wild-type human full length YANK2 (M1 to S414 residues) expressed in bacterial expression system assessed as residual binding level at 1 uM by Kinomescan method relative to control.
Sequence of Serine/threonine-protein kinase 32B (Homo sapiens) (Q9NY57 whole entry, the tested form may be a part): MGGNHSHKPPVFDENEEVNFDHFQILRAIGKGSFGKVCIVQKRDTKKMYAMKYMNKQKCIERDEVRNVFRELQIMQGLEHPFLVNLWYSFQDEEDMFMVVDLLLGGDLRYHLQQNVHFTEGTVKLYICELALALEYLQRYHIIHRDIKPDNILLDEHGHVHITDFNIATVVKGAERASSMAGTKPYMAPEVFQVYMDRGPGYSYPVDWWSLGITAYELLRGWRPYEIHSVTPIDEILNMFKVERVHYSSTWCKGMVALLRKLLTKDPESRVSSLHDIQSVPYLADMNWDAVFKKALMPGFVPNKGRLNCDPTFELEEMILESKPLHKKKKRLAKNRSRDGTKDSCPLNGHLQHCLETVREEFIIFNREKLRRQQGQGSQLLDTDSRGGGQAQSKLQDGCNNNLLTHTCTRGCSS

With `CC(C)Nc1sc(C(=O)c2ccc(Cl)s2)c(N)c1C#N`, the Activity in [1] was 95%; in assay [2], 87%; in assay [3] it was 100%; in assay [4] it was 94%; in assay [5], 92%; in assay [6] it was 37%. For the same molecule, the Activity in assay [7] stood at 100%; in [8], 96%; in [9], 100%; in assay [10], 67%; in assay [11] it was 100%; in assay [12] it was 85%. Moreover, the Activity in assay [13] came out at 84%; in assay [14] it was 92%; in [15] it was 100%; in assay [16] it was 100%; in assay [17], 59%; in [18], 100%. The Activity stood at 84% in assay [19]; 100% in [20]; 80% in [21]; 98% in assay [22]; 93% in [23]; 100% in assay [24].
